Reference: PubChem BioAssay (NCI)
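Assay format: 96-well plates, 48-hour exposure. TGI: total growth inhibition.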

Key:
Test in all cases: growth of human tumour cells (NCI), 48 h
[1] = test system: 786-0 renal
[2] = test system: A498 renal
[3] = test system: A549 NSCLC
[4] = test system: ACHN renal
[5] = test system: CAKI-1 renal
[6] = test system: CCRF-CEM leukemia
[7] = test system: COLO 205 colon
[8] = test system: DMS 114 small cell lung
[9] = test system: DMS 273 small cell lung
[10] = test system: EKVX NSCLC
[11] = test system: HCC-2998 colon
[12] = test system: HCT-116 colon
[13] = test system: HCT-15 colon
[14] = test system: HL-60(TB) leukemia
[15] = test system: HOP-18 NSCLC
[16] = test system: HOP-62 NSCLC
[17] = test system: HOP-92 NSCLC
[18] = test system: HT29 colon
[19] = test system: IGROV1 ovarian
[20] = test system: K-562 leukemia
[21] = test system: KM12 colon
[22] = test system: KM20L2 colon
[23] = test system: LOX IMVI melanoma
[24] = test system: LXFL 529 NSCLC
[25] = test system: M14 melanoma
[26] = test system: M19-MEL melanoma
[27] = test system: MALME-3M melanoma
[28] = test system: MOLT-4 leukemia
[29] = test system: NCI-H226 lung
[30] = test system: NCI-H23 lung
[31] = test system: NCI-H460 lung
[32] = test system: NCI-H522 lung
[33] = test system: OVCAR-3 ovarian
[34] = test system: OVCAR-4 ovarian
[35] = test system: OVCAR-5 ovarian
[36] = test system: OVCAR-8 ovarian
[37] = test system: RPMI-8226 leukemia
[38] = test system: RXF 393 renal
[39] = test system: RXF-631 renal
[40] = test system: SF-268 CNS
[41] = test system: SF-295 CNS
[42] = test system: SF-539 CNS
[43] = test system: SK-MEL-2 melanoma
[44] = test system: SK-MEL-28 melanoma
[45] = test system: SK-MEL-5 melanoma
[46] = test system: SK-OV-3 ovarian
[47] = test system: SN12C renal
[48] = test system: SNB-19 CNS
[49] = test system: SNB-75 CNS
[50] = test system: SW-620 colon
[51] = test system: TK-10 renal
[52] = test system: U251 CNS
[53] = test system: UACC-257 melanoma
[54] = test system: UACC-62 melanoma
[55] = test system: UO-31 renal
[56] = test system: XF 498 CNS
[57] = test system: DLD-1 colon
[58] = test system: SR leukemia
[59] = test system: SNB-78 CNS

CC(C)OC(=O)c1cc(NC(=O)C(C)(C)C)c(F)cc1Cl
TGI [1]: > 100 µM
TGI [2]: > 100 µM
TGI [3]: > 100 µM
TGI [4]: > 100 µM
TGI [5]: > 100 µM
TGI [6]: > 100 µM
TGI [7]: > 100 µM
TGI [8]: > 100 µM
TGI [9]: > 100 µM
TGI [10]: > 100 µM
TGI [11]: > 100 µM
TGI [12]: > 100 µM
TGI [13]: > 100 µM
TGI [14]: > 100 µM
TGI [15]: > 100 µM
TGI [16]: > 100 µM
TGI [17]: > 100 µM
TGI [18]: > 100 µM
TGI [19]: > 100 µM
TGI [20]: > 100 µM
TGI [21]: > 100 µM
TGI [22]: > 100 µM
TGI [23]: > 100 µM
TGI [24]: > 100 µM
TGI [25]: > 100 µM
TGI [26]: > 100 µM
TGI [27]: > 100 µM
TGI [28]: > 100 µM
TGI [29]: > 100 µM
TGI [30]: > 100 µM
TGI [31]: > 100 µM
TGI [32]: > 100 µM
TGI [33]: > 100 µM
TGI [34]: > 100 µM
TGI [35]: > 100 µM
TGI [36]: > 100 µM
TGI [37]: > 100 µM
TGI [38]: > 100 µM
TGI [39]: > 100 µM
TGI [40]: > 100 µM
TGI [41]: > 100 µM
TGI [42]: > 100 µM
TGI [43]: > 100 µM
TGI [44]: > 100 µM
TGI [45]: > 100 µM
TGI [46]: > 100 µM
TGI [47]: > 100 µM
TGI [48]: > 100 µM
TGI [49]: > 100 µM
TGI [50]: > 100 µM
TGI [51]: > 100 µM
TGI [52]: > 100 µM
TGI [53]: > 100 µM
TGI [54]: > 100 µM
TGI [55]: > 100 µM
TGI [56]: > 100 µM

C(=C\c1cc(CCc2nc3ccccc3[nH]2)[nH]n1)/c1ccccc1
TGI [1]: > 100 µM
TGI [2]: > 100 µM
TGI [3]: > 100 µM
TGI [4]: > 100 µM
TGI [5]: > 100 µM
TGI [6]: > 100 µM
TGI [7]: > 100 µM
TGI [57]: > 100 µM
TGI [8]: > 100 µM
TGI [10]: > 100 µM
TGI [11]: > 100 µM
TGI [12]: > 100 µM
TGI [13]: > 100 µM
TGI [14]: > 100 µM
TGI [15]: > 100 µM
TGI [16]: > 100 µM
TGI [17]: > 100 µM
TGI [18]: > 100 µM
TGI [19]: > 100 µM
TGI [20]: > 100 µM
TGI [21]: > 100 µM
TGI [22]: > 100 µM
TGI [23]: > 100 µM
TGI [25]: > 100 µM
TGI [26]: > 100 µM
TGI [27]: > 100 µM
TGI [28]: > 100 µM
TGI [29]: > 100 µM
TGI [30]: > 100 µM
TGI [31]: > 100 µM
TGI [32]: > 100 µM
TGI [33]: > 100 µM
TGI [34]: > 100 µM
TGI [35]: > 100 µM
TGI [36]: > 100 µM
TGI [37]: > 100 µM
TGI [38]: > 100 µM
TGI [39]: > 100 µM
TGI [40]: > 100 µM
TGI [41]: > 100 µM
TGI [42]: > 100 µM
TGI [44]: > 100 µM
TGI [45]: > 100 µM
TGI [46]: > 100 µM
TGI [47]: > 100 µM
TGI [48]: > 100 µM
TGI [49]: > 100 µM
TGI [58]: > 100 µM
TGI [50]: > 100 µM
TGI [51]: > 100 µM
TGI [52]: > 100 µM
TGI [53]: > 100 µM
TGI [54]: > 100 µM
TGI [55]: > 100 µM
TGI [56]: > 100 µM

NC(N)=NNC(=O)CCn1[nH]c(=O)c(Cl)c(Cl)c1=O
TGI [1]: > 100 µM
TGI [3]: > 100 µM
TGI [4]: > 100 µM
TGI [5]: > 100 µM
TGI [6]: > 100 µM
TGI [7]: > 100 µM
TGI [57]: > 100 µM
TGI [8]: > 100 µM
TGI [9]: > 100 µM
TGI [10]: > 100 µM
TGI [11]: > 100 µM
TGI [13]: > 100 µM
TGI [14]: > 100 µM
TGI [15]: > 100 µM
TGI [16]: > 100 µM
TGI [18]: > 100 µM
TGI [19]: > 100 µM
TGI [20]: > 100 µM
TGI [21]: > 100 µM
TGI [22]: > 100 µM
TGI [23]: > 100 µM
TGI [24]: > 100 µM
TGI [25]: > 100 µM
TGI [26]: > 100 µM
TGI [27]: > 100 µM
TGI [28]: > 100 µM
TGI [29]: > 100 µM
TGI [30]: > 100 µM
TGI [31]: > 100 µM
TGI [32]: > 100 µM
TGI [33]: > 100 µM
TGI [34]: > 100 µM
TGI [35]: > 100 µM
TGI [36]: > 100 µM
TGI [37]: > 100 µM
TGI [38]: > 100 µM
TGI [39]: > 100 µM
TGI [40]: > 100 µM
TGI [41]: > 100 µM
TGI [42]: > 100 µM
TGI [43]: > 100 µM
TGI [44]: > 100 µM
TGI [45]: > 100 µM
TGI [46]: > 100 µM
TGI [47]: > 100 µM
TGI [48]: > 100 µM
TGI [49]: > 100 µM
TGI [50]: > 100 µM
TGI [51]: > 100 µM
TGI [52]: > 100 µM
TGI [53]: > 100 µM
TGI [54]: > 100 µM
TGI [55]: > 100 µM
TGI [56]: > 100 µM

Cn1cc(NC(=O)c2cc(NC(=O)CCCCCCCCC(=O)Nc3cc(C(=O)Nc4cc(C(=O)NCCC(N)N)n(C)c4)n(C)c3)cn2C)cc1C(=O)NCCC(=N)N
TGI [1]: 47.1 µM
TGI [3]: 40 µM
TGI [4]: 36.5 µM
TGI [5]: 49.7 µM
TGI [6]: 49.3 µM
TGI [7]: > 100 µM
TGI [57]: 73.9 µM
TGI [9]: 55.8 µM
TGI [10]: 48.1 µM
TGI [11]: 52 µM
TGI [12]: 55.3 µM
TGI [13]: > 100 µM
TGI [15]: 47.2 µM
TGI [16]: 59.4 µM
TGI [17]: 65.2 µM
TGI [18]: 49.7 µM
TGI [19]: 74.4 µM
TGI [20]: 40.9 µM
TGI [21]: 63.4 µM
TGI [22]: 44 µM
TGI [23]: > 100 µM
TGI [24]: 76.9 µM
TGI [25]: 66.3 µM
TGI [26]: 66 µM
TGI [27]: 15.5 µM
TGI [28]: 49.1 µM
TGI [29]: 70.7 µM
TGI [30]: > 100 µM
TGI [31]: 62 µM
TGI [32]: 79.2 µM
TGI [33]: 74.5 µM
TGI [34]: > 100 µM
TGI [35]: 45.3 µM
TGI [36]: 52.4 µM
TGI [37]: 28.6 µM
TGI [38]: 43.2 µM
TGI [39]: 71.2 µM
TGI [40]: 66.1 µM
TGI [41]: 74.8 µM
TGI [42]: 54.4 µM
TGI [43]: 49.3 µM
TGI [44]: 43.2 µM
TGI [45]: 30.2 µM
TGI [46]: 78.7 µM
TGI [47]: 68.9 µM
TGI [48]: 62.5 µM
TGI [49]: 55.3 µM
TGI [59]: 93.1 µM
TGI [50]: 44.9 µM
TGI [51]: 38.9 µM
TGI [52]: 36.8 µM
TGI [53]: 57 µM
TGI [54]: 60.1 µM
TGI [55]: 56.9 µM
TGI [56]: 66.8 µM

COCOCCCCCO[Si](C)(C)C(C)(C)C
TGI [1]: 29 µM
TGI [2]: 77.8 µM
TGI [3]: 50 µM
TGI [4]: 27.7 µM
TGI [6]: 58.1 µM
TGI [7]: 38.5 µM
TGI [57]: > 100 µM
TGI [8]: 35.9 µM
TGI [10]: 46.8 µM
TGI [11]: 31.9 µM
TGI [12]: 26.4 µM
TGI [13]: 32.1 µM
TGI [14]: 30.9 µM
TGI [15]: 65.3 µM
TGI [17]: 36.9 µM
TGI [18]: 30.8 µM
TGI [19]: 69.7 µM
TGI [20]: 54.9 µM
TGI [21]: 63.2 µM
TGI [22]: 75.8 µM
TGI [23]: 31.2 µM
TGI [24]: > 100 µM
TGI [25]: 48.7 µM
TGI [26]: 70 µM
TGI [27]: 47.9 µM
TGI [28]: 36.9 µM
TGI [30]: 42.7 µM
TGI [31]: 43.4 µM
TGI [32]: 28.6 µM
TGI [33]: 27.6 µM
TGI [35]: 44.9 µM
TGI [36]: 41.2 µM
TGI [37]: 51.9 µM
TGI [38]: 31.9 µM
TGI [39]: 52.8 µM
TGI [40]: 27.9 µM
TGI [41]: 30.1 µM
TGI [42]: 40.8 µM
TGI [43]: 31 µM
TGI [44]: > 100 µM
TGI [45]: 30.3 µM
TGI [46]: > 100 µM
TGI [47]: 32 µM
TGI [48]: 30.6 µM
TGI [49]: 83.8 µM
TGI [59]: 48.3 µM
TGI [58]: 49.6 µM
TGI [50]: 33.5 µM
TGI [51]: 97.6 µM
TGI [52]: 29.4 µM
TGI [53]: 40.2 µM
TGI [54]: 64.6 µM
TGI [55]: 42.8 µM
TGI [56]: 31.6 µM
